Experiment [1] deals with Human breast cancer cells SK-BR-3 (WT). Briefly: Cell proliferation inhibition assay (CTG), SK-BR-3 (WT). The note with it: Homo sapiens, 72 h, SK-BR-3 (WT) cells, 3 days incubation, CTG readout. Type of experiment: cell-based. As for the experimental part:
(§1) Cell Proliferation Inhibition Assay
(§2) 1. Experimental Materials
(§3) II. Experimental Protocol
(§4) • a) Cell suspension was prepared; • b) The medium was removed from the culture flask; • c) The cells were rinsed once with PBS; • d) Trypsin was added for digestion, and the cells were centrifuged and collected; • e) The cells were resuspended in medium, counted and adjusted to an appropriate concentration; • f) 100 µL of cell suspension was added to each well of a 96-well plate. One plate was used for each cell line, which was incubated overnight in a 37 °C, 5% CO2 incubator.
(§5) 2. Treatment of Compounds
(§6) • a) Serial dilutions of the test compounds were prepared: The compound was prepared as a 10 mM stock solution. 18 µL of the stock solution was dissolved in 982 µL of the culture medium containing DMSO, followed by 4-fold serial dilutions in culture medium containing 0.5% DMSO to give 9 concentrations. The concentrations of the diluted compound were as follows: 180000 nM, 45000 nM, 11250 nM, 2812.5 nM, 703.13 nM, 175.78 nM, 43.95 nM, 10.99 nM, and 2.75 nM. • b) After thorough mixing, 20 µL of each compound solution was added to the cell plate containing 100 µL of cells per well. Each concentration was tested in triplicate. Final concentrations of the compound were as follows: 30000 nM, 7500 nM, 1875 nM, 468.75 nM, 117.188 nM, 29.30 nM, 7.32 nM, 1.83 nM, and 0.46 nM. • c) The cells were transferred into the incubator and incubated for 3 days.
(§7) The cell plate was removed, 25 µL of CTG reagent was added to each well of the 96-well plate, the mixture was shook on a plate shaker at room temperature for 10 minutes, and the plate was read.
(§8) The cell survival rate was calculated using the following formula (% Cell Survival): % Cell Survival = 100% × (OD_Sample−OD_LCave)/(OD_HC−OD_LCave) [formula] • OD_HC: Reading of the 0.1‰ DMSO control group • OD_Sample: Reading of cells treated with compound • OD_LCave: Reading of blank medium
(§9) Analyzed by Prism: Dose-response-Inhibition - Log (inhibitor) vs response (three parameters for the best fit).

The subject of experiment [2] is Human breast cancer cells T47D (H1047R). Briefly: Cell proliferation inhibition assay (CTG), T47D (H1047R). Type of experiment: cell-based. The note with it: Homo sapiens, 72 h, 3 days incubation, CTG readout. As for the experimental part:
as §1, §2, §3, §4, §5, §6, §7, §8, §9

For the molecule `Cc1cc([C@@H](C)Nc2ccccc2C(=O)O)c2oc3c(c(=O)c2c1)CCN(S(=O)(=O)c1cccc2c1CCO2)C3` [Compound C149], the concentration for half-maximal inhibition (IC50) in experiment [1] was above 5 µM; in experiment [2] it was at most 500 nM.
In the same order, the values of `C[C@@H](Nc1ccccc1C(=O)O)c1cc(F)cc2c(=O)c3c(oc12)CN(S(=O)(=O)c1cccc2c1CCO2)CC3` [Compound C150] are above 5 µM and at most 500 nM.
In the case of `Cc1cc([C@@H](C)Nc2ccccc2C(=O)O)c2oc3c(c(=O)c2c1)CCN(S(=O)(=O)c1c(Cl)ccc2c1CCO2)C3` [Compound C151], the half-inhibitory concentration (IC50) in experiment [1] was above 5 µM; in experiment [2], at most 500 nM.
On the same counts, the results for `C[C@@H](Nc1ccccc1C(=O)O)c1cc(F)cc2c(=O)c3c(oc12)CN(S(=O)(=O)c1c(Cl)ccc2c1CCO2)CC3` [Compound C152] are above 5 µM and at most 500 nM.
As for `Cc1cc([C@@H](C)Nc2ccccc2C(=O)O)c2oc3c(c(=O)c2c1)CCN(S(=O)(=O)N1CCC(F)(F)CC1)C3` [Compound C153], the IC50 in experiment [1] is above 5 µM; in experiment [2], at most 500 nM.
In the same order, the values of `Cc1cc([C@@H](C)Nc2ccccc2C(=O)O)c2oc3c(c(=O)c2c1)CCN(S(=O)(=O)N1C[C@@H](C)O[C@H](C)C1)C3` [Compound C154] are above 5 µM and at most 500 nM.
On the same counts, the results for `C[C@@H]1CN(S(=O)(=O)N2CCc3c(oc4c([C@@H](C)Nc5ccccc5C(=O)O)cc(F)cc4c3=O)C2)C[C@@H](C)O1` [Compound C155] are above 5 µM and at most 500 nM.
In the same order, the values of `Cc1cc([C@@H](C)Nc2ccccc2C(=O)O)c2oc3c(c(=O)c2c1)CCN(S(=O)(=O)c1c(C)nnn1C)C3` [Compound C156] are above 5 µM and at most 500 nM.
Regarding `Cc1nnn(C)c1S(=O)(=O)N1CCc2c(oc3c([C@@H](C)Nc4ccccc4C(=O)O)cc(F)cc3c2=O)C1` [Compound C157], the 50% inhibitory concentration (IC50) in experiment [1] was above 5 µM; in experiment [2] it was 500 to 2000 nM.
On the same counts, the results for `Cc1cc([C@@H](C)Nc2ccccc2C(=O)O)c2oc3c(c(=O)c2c1)CCN(S(=O)(=O)c1c(C)cnn1C)C3` [Compound C158] are above 5 µM and at most 500 nM.
For the molecule `Cc1cnn(C)c1S(=O)(=O)N1CCc2c(oc3c([C@@H](C)Nc4ccccc4C(=O)O)cc(F)cc3c2=O)C1` [Compound C159], the half-maximal inhibitory concentration (IC50) was above 5 µM in experiment [1] and at most 500 nM in experiment [2].
On the same counts, the results for `Cc1nsc(C)c1S(=O)(=O)N1CCc2c(oc3c([C@@H](C)Nc4ccccc4C(=O)O)cc(F)cc3c2=O)C1` [Compound C160] are above 5 µM and at most 500 nM.
`Cc1cc([C@@H](C)Nc2ccccc2C(=O)O)c2oc3c(c(=O)c2c1)CCN(S(=O)(=O)c1ccccc1F)C3` [Compound C162]: the IC50 is above 5 µM in experiment [1] and at most 500 nM in experiment [2].
For `CCOC(=O)c1ccccc1N[C@H](C)c1cc(C)cc2c(=O)c3c(oc12)CN(S(=O)(=O)N1CCOCC1)CC3` [Compound C165], the IC50 in experiment [1] was above 5 µM; in experiment [2], 500 to 2000 nM.
For `Cc1cc([C@@H](C)Nc2ccccc2C(=O)O)c2oc3c(c(=O)c2c1)CCN(S(C)(=O)=O)C3` [Compound C168], the 50% inhibitory concentration (IC50) in experiment [1] is above 5 µM; in experiment [2] it was 500 to 2000 nM.
On the same counts, the results for `Cc1cc([C@@H](C)Nc2ccccc2C(=O)O)c2oc3c(c(=O)c2c1)CCN(C(C)C)C3` [Compound C171] are above 5 µM and 500 to 2000 nM.
As for `Cc1cc([C@@H](C)Nc2ccccc2C(=O)O)c2oc3c(c(=O)c2c1)CCN(c1ccccn1)C3` [Compound C172], the IC50 was above 5 µM in experiment [1] and at most 500 nM in experiment [2].
In the same order, the values of `Cc1cc([C@@H](C)Nc2ccccc2C(=O)O)c2oc3c(c(=O)c2c1)CCN(C1CC2CCC1C2)C3` (some centres unmarked) [Compound C173] are above 5 µM and 500 to 2000 nM.
As for `Cc1cc([C@@H](C)Nc2ccccc2C(=O)O)c2oc3c(c(=O)c2c1)CCN(c1ncccn1)C3` [Compound C175], the half-maximal inhibitory concentration (IC50) in experiment [1] was above 5 µM; in experiment [2] it was at most 500 nM.

Usually IC50 stands for the concentration that gives 50% inhibition.

The values above are taken from EP4772513A1, “PI3K-ALPHA INHIBITOR AND USE THEREOF” (TYK Medicines (Zhengzhou), Inc., priority 2023, dated 2025).
